# Measured values reported in patent US5438073A, “Dermatological and/or cosmetological composition containing retinoids” (Pierre Fabre Cosmetique, priority 1991, dated 1995).
# Read-outs that look alike come from different tables or passages of the source.
# How the values were obtained:
# [1] = test system: cytosol extracts of human keratinocytes; conditions: human epidermal cells; specific inhibitors of alcohol metabolism or excess of ethanol
# Procedure: We have measured the conversion of retinol to retinoic acid. We have also measured the enzymatic oxidation-reduction of retinal in human epidermal cell extracts in vitro (HPLC analysis of the products obtained by incubation of cytosol extracts with ^3 H-labeled RAL and ROL).
# (§1) The HPLC analyses of the retinoids are carried out by the following technique:
# (§2) A 100 μl aliquot of the cytosol fraction of keratinocytes is incubated with 600 μM (^3 H) retinol or (^3 H) retinal for 1 hour.
# (§3) 5 μl of internal standard solution containing 4-oxoretinoic acid, all-trans-retinoic acid, 13-cis-retinoic acid, retinol and retinal are subsequently added to the reaction medium.
# (§4) The radioactive material is then extracted with 3×1 ml of hexane.
# (§5) The organic phase is collected and completely evaporated using a stream of nitrogen gas.
# (§6) The residue is subsequently taken up in 50 μl of acetonitrile and analysed on an HPLC column.
# (§7) The HPLC system consists of a VARIAN 5000 apparatus equipped with an ODS-Ultrasyl reverse-phase column (10 μm, 25×0.4 cm).
# (§8) The unlabeled retinoids are detected by their absorbance measured at 340 nm. 600 μl fractions are also collected using a fraction collector, and their radio-activity is measured with a scintillation counter after adding 4 ml of Pico-fluor.
# normal human skin [2] = conditions: topically applied; cited from earlier work
# [3] = test system: extracts of normal human skin and of the psoriasis plaque
# Procedure: (§9) We have also measured the enzymatic oxidation-reduction of retinal in human epidermal cell extracts in vitro (HPLC analysis of the products obtained by incubation of cytosol extracts with ^3 H-labeled RAL and ROL).
# as §1, §2, §3, §4, §5, §6, §7
# (§10) The isocratic elution system consists of a mixture of solvents composed of 71% acetonitrile, 23% of ammonium acetate buffer (50 mM, pH 7) and 6% tetrahydrofuran, with a flow rate of 2.4 ml/min.
# as §8
# rosacea = assay: application in the case of rosacea; assay type: in vivo, human; conditions: 0.1% retinal, topical, daily
# Procedure: This test was carried out on 10 subjects displaying the clinical signs of rosacea. A topical application containing 0.1% of retinal was used in daily application for 3 months.
# seborrheic dermatitis = assay: application in the case of seborrheic dermatitis; assay type: in vivo, human; conditions: 0.05% retinal, topical, daily; after treatment for one month
# Procedure: This test was carried out on 10 subjects displaying the clinical signs of seborrheic dermatitis.
# A topical application containing 0.05% of retinal was used in daily application for one month.
# [4] = test system: human epidermal cell extracts
# Procedure: as §9, §1, §2, §3, §4, §5, §6, §7, §10, §8
# normal human skin [5] = test system: normal human skin
# Text: This test, carried out on 30 healthy volunteers, was intended to evaluate the existance of a biological effect and the tolerance after topical application of retinal.
# Three concentrations, 1.0%, 0.1% and 0.05%, were used, in daily covered applications for at least 15 days and up to 3 months in 10 subjects.
# psoriasis plaques = conditions: for regression of the lesion score: with occlusion
# Procedure: For this reason, the 1% preparation was used and the effects of a daily application were compared with those of the excipient, in 12 patients.
# The application was "open" in 6 cases, and with occlusion in six 6. 11 cases were able to be evaluated (5 with occlusion, 6 open). The effect was measured by standard methods (erythema 0-3, squama 0-3, infiltration 0-3), comparing the plaques treated with retinal with the symmetrical plaques treated with the excipients. Photographs were taken at each inspection.
# [6] = test system: protein extract of psoriasis plaques / cytosol extracts of normal human skin; assay type: in vitro ADME
# Text: Furthermore, the Applicant has shown that the protein extract of psoriasis plaques was also capable of converting retinol to retinoic acid, but with a lower activity (0.33+0.07 pmol/h/mg) than differentiated keratinocytes.
# These differences in the conversion activity may be attributed to the differences in biological activity of the tissues studied or to their different state of differentiation.
compound,measurement,setting,value
Cc1cn[nH]c1 [4-methylpyrazole],effect on the production of retinoic acid from retinol,[1],not affected
CCN(CC)C(=S)SSC(=S)N(CC)CC [disulfiram],effect on the production of retinoic acid from retinol,[1],not affected
CC1=C(/C=C/C(C)=C/C=C/C(C)=C/C(=O)O)C(C)(C)CCC1 [retinoic acid],topical concentration at which dermatitis caused by the retinoids is observed,normal human skin [2],≥ 0.01%
CC1=C(/C=C/C(C)=C/C=C/C(C)=C/C=O)C(C)(C)CCC1 [retinal],oxidation of retinal to retinoic acid,[3],1.35 ± 0.4 pmol/h/mg
same,subjects left with almost no sign of characteristic erythrosis of rosacea,rosacea; after treatment for 3 months,70%
same,cases with a substantial improvement in the rosacea,"rosacea; from the first month, 10 subjects",6 of the 10
same,subjects left with almost no characteristic signs of seborrheic dermatitis,seborrheic dermatitis,80%
same,oxidation of retinal,[4],51.6 pmol/h/mg
same,biological effect on normal skin,"normal human skin [5]; 0.1% and 0.05% preparations, topical, healthy volunteers",better appearance of the skin
same,cases in which an irritation arose,normal human skin [5]; in vivo,10%
same,irritation / dermatitis caused by the retinoids,normal human skin [5]; in vivo,no irritation was noted
same,skin coloration induced,normal human skin [5]; in vivo,yellowish coloration
same,tolerability,normal human skin [5]; in vivo,excellent
same,effect on psoriasis plaques,"psoriasis plaques; 0.1% and 0.05% preparations, initial pilot study",only a modest effect
same,effect on the action of UVA,"psoriasis plaques; 0.1% and 0.05% preparations, psoriasis plaques",potentiating effect
same,results in the open series,"psoriasis plaques; 1% preparation, daily, open application, 6 cases","only one very good result was noted, with one good and four modest results"
same,regression of the lesion score,"psoriasis plaques; 1% preparation, daily, 3 of the 5 cases, from the first week",more than 50%
same,regression of the lesion score,"psoriasis plaques; 1% preparation, daily, one case (good result)",30%
same,regression of the lesion score,"psoriasis plaques; 1% preparation, daily, one case (modest result)",10%
same,local reaction on the psoriasis plaque,psoriasis plaques; in vivo,inflammation specifically localized on the psoriasis plaque
CC1=C(/C=C/C(C)=C/C=C/C(C)=C/CO)C(C)(C)CCC1 [retinol],activity of converting retinol to retinoic acid,[6],0.33+0.07 pmol/h/mg
same,conversion of retinol to retinoic acid,[6],no measurable degree of conversion
CCO [ethanol],effect on the production of retinoic acid from retinol,[1],not affected
